This note sets out measurements from ChEMBL document CHEMBL5331145, “Discovery of a Novel Bifunctional Steroid Analog, YXG-158, as an Androgen Receptor Degrader and CYP17A1 Inhibitor for the Treatment of Enzalutamide-Resistant Prostate Cancer” (J Med Chem, 2023).

The structures appear in SMILES notation.

Data set [1] is described as follows: Effect on androgen sensitive organs in testosterone propionate stimulated castrated male Sprague-Dawley rat assessed as ventral prostate weight loss at 20 mg/kg, po administered once daily for 10 days and measured 24 hrs post last dose. In kind it is functional. To be noted: time 11 day.
Data set [2] can be described thus: Antitumor activity against human LNCaP/AR cells xenografted in SCID male mouse assessed as tumor growth inhibition at 10 mg/kg, po administered once daily for 28 days and measured every 3 days. To be noted: time 28 day. In kind it is functional.
Data set [3] concerns the target GABA-A receptor; anion channel. The data set can be described thus: Antagonist activity at GABA-A (unknown origin). In kind it is toxicity, Homo sapiens.
Data set [4] in a line: Effect on androgen sensitive organs in testosterone propionate stimulated castrated male Sprague-Dawley rat assessed as seminal vesicles weight loss at 20 mg/kg, po administered once daily for 10 days and measured 24 hrs post last dose. In kind it is functional. To be noted: time 11 day.
Data set [5] concerns the target T1, Steroid 17-alpha-hydroxylase/17,20 lyase (Homo sapiens, UniProt P05093).
T1 sequence (P05093 whole entry): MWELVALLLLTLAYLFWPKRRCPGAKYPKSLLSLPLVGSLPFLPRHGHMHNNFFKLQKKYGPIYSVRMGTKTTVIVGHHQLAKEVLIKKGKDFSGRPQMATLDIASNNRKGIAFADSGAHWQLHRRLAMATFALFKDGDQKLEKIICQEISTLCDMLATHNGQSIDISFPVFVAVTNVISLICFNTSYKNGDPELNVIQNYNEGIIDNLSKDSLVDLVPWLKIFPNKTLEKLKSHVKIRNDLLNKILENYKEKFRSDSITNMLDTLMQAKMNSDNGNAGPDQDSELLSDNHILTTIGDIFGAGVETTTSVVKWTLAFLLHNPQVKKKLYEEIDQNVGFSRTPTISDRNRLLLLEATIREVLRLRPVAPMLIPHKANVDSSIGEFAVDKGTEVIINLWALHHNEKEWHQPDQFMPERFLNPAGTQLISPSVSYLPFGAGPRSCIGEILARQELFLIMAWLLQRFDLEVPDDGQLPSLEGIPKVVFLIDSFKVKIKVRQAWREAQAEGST
In words: Inhibition of recombinant human CYP17A1 using progesterone as substrate incubated for 5 mins in presence of NADPH by LC-MS/MS analysis. In kind it is ADME.

The target in data set [6] is T2, Androgen receptor (Homo sapiens, UniProt P10275).
T2 sequence (P10275 whole entry): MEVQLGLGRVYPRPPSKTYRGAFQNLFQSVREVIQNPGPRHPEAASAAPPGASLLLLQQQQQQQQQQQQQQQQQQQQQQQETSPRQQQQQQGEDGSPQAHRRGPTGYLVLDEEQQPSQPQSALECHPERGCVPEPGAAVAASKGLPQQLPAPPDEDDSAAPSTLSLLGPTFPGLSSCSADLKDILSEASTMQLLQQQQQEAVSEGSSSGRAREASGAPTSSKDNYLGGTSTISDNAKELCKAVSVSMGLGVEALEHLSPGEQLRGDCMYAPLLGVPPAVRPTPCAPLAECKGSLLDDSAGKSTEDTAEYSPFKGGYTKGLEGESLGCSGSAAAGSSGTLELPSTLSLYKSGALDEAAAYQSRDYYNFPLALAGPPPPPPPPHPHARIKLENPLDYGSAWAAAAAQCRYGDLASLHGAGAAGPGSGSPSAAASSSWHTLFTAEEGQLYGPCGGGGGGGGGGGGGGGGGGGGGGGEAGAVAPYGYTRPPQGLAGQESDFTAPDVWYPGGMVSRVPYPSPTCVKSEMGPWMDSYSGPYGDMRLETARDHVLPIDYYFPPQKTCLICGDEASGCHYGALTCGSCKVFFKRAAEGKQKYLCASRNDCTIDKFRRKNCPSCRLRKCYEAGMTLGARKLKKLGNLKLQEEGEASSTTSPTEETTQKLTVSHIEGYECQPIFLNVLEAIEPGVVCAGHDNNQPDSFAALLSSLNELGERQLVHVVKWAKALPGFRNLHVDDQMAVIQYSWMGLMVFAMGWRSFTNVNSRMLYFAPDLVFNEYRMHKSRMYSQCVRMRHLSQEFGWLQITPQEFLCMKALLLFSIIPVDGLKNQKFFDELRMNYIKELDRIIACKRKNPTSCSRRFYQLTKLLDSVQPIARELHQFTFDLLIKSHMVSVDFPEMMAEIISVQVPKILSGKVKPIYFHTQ
In words: Antagonist activity at wild type androgen receptor expressed in HEK293 cells assessed as reduction in DHT-induced transcriptional activation of androgen receptor incubated for 24 hrs by Steady-Glo assay. In kind it is cell-based.

The subject of a further data set is LNCaP. In words: Antiproliferative activity against human LNCaP cells incubated for 6 days by CellTiter-Glo assay. It is filed as functional, cell-based. Background: In ATP-based viability assays light output follows the ATP content of the culture.
In data set [7] the target is Voltage-gated inwardly rectifying potassium channel KCNH2 (Homo sapiens, UniProt Q12809). In words: Inhibition of human ERG by patch clamp assay. In kind it is toxicity. Background: The patch-clamp technique gives a direct electrical read-out from membranes.
Data set [8] is described as follows: Cmax in Sprague-Dawley rat at 10 mg/kg, po measured upto 24 hrs by LC-MS/MS analysis. In kind it is ADME, organism-based. Also noted: dose 10 mg/kg, time < 24 hrs, route po. To be noted: in vivo.
A short description of data set [9]: Tmax in Sprague-Dawley rat at 10 mg/kg, po measured upto 24 hrs by LC-MS/MS analysis. It is filed as ADME, organism-based. To be noted: in vivo.
Data set [10] deals with T2, Androgen receptor. The data set can be described thus: Induction of androgen receptor degradation in human LNCaP cells incubated for 24 hrs by ELISA. It is filed as cell-based.
Data set [11] in a line: Half life in Sprague-Dawley rat at 10 mg/kg, po measured upto 24 hrs by LC-MS/MS analysis. It is filed as ADME, organism-based. To be noted: in vivo.
A short description of data set [12]: AUC(0 to t) in Sprague-Dawley rat at 10 mg/kg, po measured upto 24 hrs by LC-MS/MS analysis. To be noted: in vivo. In kind it is ADME, organism-based.

Chain of Voltage-gated inwardly rectifying potassium channel KCNH2 (Q12809 whole entry): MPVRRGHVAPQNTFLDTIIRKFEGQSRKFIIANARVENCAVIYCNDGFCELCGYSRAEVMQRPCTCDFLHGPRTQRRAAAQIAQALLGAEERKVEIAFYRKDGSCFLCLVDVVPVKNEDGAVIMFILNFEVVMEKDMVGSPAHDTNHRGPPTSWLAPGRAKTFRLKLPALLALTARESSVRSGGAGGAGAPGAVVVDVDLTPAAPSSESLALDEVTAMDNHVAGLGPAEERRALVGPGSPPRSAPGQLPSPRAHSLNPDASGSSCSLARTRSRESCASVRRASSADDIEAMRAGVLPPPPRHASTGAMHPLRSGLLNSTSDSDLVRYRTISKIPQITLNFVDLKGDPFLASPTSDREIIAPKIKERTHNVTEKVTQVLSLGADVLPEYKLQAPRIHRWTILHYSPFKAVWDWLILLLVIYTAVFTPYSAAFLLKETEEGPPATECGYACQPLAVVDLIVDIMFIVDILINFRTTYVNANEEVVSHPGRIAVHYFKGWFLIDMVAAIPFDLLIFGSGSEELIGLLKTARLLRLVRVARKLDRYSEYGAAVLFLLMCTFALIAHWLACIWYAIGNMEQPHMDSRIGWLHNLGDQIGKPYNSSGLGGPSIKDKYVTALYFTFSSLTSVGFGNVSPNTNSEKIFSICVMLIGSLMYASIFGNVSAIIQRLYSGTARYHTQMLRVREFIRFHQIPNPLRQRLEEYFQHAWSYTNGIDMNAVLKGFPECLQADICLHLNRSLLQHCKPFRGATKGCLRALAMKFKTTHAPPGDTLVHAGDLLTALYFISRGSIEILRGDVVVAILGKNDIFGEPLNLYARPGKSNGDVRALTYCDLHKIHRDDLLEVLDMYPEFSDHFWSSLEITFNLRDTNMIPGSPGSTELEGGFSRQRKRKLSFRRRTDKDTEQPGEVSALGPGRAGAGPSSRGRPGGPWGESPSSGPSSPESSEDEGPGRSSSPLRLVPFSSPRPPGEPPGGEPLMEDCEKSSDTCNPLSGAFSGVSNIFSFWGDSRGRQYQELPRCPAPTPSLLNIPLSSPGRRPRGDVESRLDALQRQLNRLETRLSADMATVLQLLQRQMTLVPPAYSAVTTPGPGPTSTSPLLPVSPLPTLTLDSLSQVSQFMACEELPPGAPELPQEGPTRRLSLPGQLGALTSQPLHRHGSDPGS

The term TGI denotes how far tumour growth fell short of that in controls. For orientation: IC50 means the concentration that inhibits the measured activity by half. Turning to `CNC(=O)c1ccc(N2C(=S)N(c3ccc(C#N)c(C(F)(F)F)c3)C(=O)C2(C)C)cc1F` [ENZALUTAMIDE], the Activity in [1] and in [4] was -67% in each case. Besides, in data set [2], the inhibition of tumour growth (TGI) is listed as 64%. Moreover, in data set [3], the IC50 was found to be 4800 nM.
A word on the Cmax: it is the peak of the concentration-time curve. By Tmax is commonly meant the time from dosing to the highest level. Usually EC50 stands for the midpoint of the concentration-response curve. Read a low EC50 as a more potent agent. Usually half-life stands for how long it takes for the measured level to halve. Low readings indicate fast loss, high ones slow loss. Consider `Cc1cn(C2=CCC3C4CC=C5C[C@@H](NC(=O)c6ccncc6)CC[C@]5(C)C4CC[C@]23C)cn1` (stereo partly drawn), for which the IC50 is 2590 nM in data set [5], 612 nM on Androgen receptor [6], 341 nM in the data set with LNCaP and 6470 nM in [7]. In [8], this compound gave a maximum concentration (Cmax) of 2670 ng/mL. Further, in data set [9], the Tmax was determined as 2.17 h. Moreover, a half-maximal effect on Androgen receptor [10] (EC50) was put at 2840 nM. In addition, the half-life in data set [11] was 2.8 h. This compound also gave an AUCt in data set [12] of 24800 h/ng/mL.
